The results in this text go back to patent US20120088262A1, “CYANINE COMPOUNDS, CONJUGATES AND METHOD OF USE” (Millipore Corporation, priority 2010, published 2012).

Series [1] is described as follows: Fluorescence excitation and emission spectrum of the dyes. In kind it is physicochemical. To be noted: for Em / emission max / Ex Peak / excitation max: solvent not given.
The test system of series [2] is live and dead cells. Nature of the series: Cell viability detection with amine reactive viability dye by flow cytometry. In kind it is cell-based. Conditions: mix of live and dead cells. The method, then:
Pipet 100 uL of prepared cells in biological buffer or media in a reaction vessel such as a tube or microwell plate. Add 100 uL of working solution to 100 uL cell sample; mix well and incubate at the room temperature for 15 minutes. Remove supernatant without disturbing the pellet. Wash the cells with PBS with bovine serum albumin (BSA) (range 0.2-10%) per well; centrifuge plate at 1000 rpm for 5 minutes; remove the supernatant by aspiration without disturbing the cell pellet.
Cells were killed by heat or treated with diamide or staurosporine inducers.
(In general: Flow cytometry measures light scatter and fluorescence of single cells or particles in a stream.)

The test system of series [3] is painted cells. The experiment in a line: Cell painting applications. In kind it is cell-based.

For the compound `O=C(O)Cc1ccc(CN2/C(=C/C=C/c3oc4ccccc4[n+]3Cc3ccc(CC(=O)O)cc3)Oc3ccccc32)cc1.[Br-]` [Compound No. 9], in series [1] (in Methanol), the Em is reported as 507 nm and the Ex is given as 489 nm. For the same compound, in series [1], the “Em / emission max” value is listed as 507 nm and the “Ex Peak / excitation max” value was 489 nm.

In series [1] (in Methanol), `O=C(Cc1ccc(CN2/C(=C/C=C/c3oc4ccccc4[n+]3Cc3ccc(CC(=O)ON4C(=O)CCC4=O)cc3)Oc3ccccc32)cc1)ON1C(=O)CCC1=O.[Br-]` [Compound No. 10] had an Em of 508 nm and an Ex of 490 nm. Moreover, in series [1], the “Em / emission max” value is listed as 507 nm and the “Ex Peak / excitation max” value was found to be 489 nm.

In series [1] (in Methanol), `CC(C(=O)O)c1ccc(C[N+]2=C(/C=C/C=C3\Oc4ccccc4N3Cc3ccc(CC(=O)O)cc3)C(C)(C)c3cc(S(=O)(=O)[O-])ccc32)cc1` (stereo not drawn) [Compound No. 11] showed an Em of 541 nm and an Ex of 510 nm. In series [1], the “Em / emission max” value came to 542 nm and the “Ex Peak / excitation max” value turned out to be 510 nm.

In the case of `CC(C(=O)ON1C(=O)CCC1=O)c1ccc(C[N+]2=C(/C=C/C=C3\Oc4ccccc4N3Cc3ccc(CC(=O)ON4C(=O)CCC4=O)cc3)C(C)(C)c3cc(S(=O)(=O)[O-])ccc32)cc1` (stereo not drawn) [Compound No. 12], the “separation of live and dead cells” value in series [2] was “excellent separation of live and dead cells”. In series [1] (in Methanol), the Em is listed as 541 nm and the Ex turned out to be 510 nm. Besides, in series [1], the “Em / emission max” value stood at 541 nm and the “Ex Peak / excitation max” value is 510 nm.

As for `CC1(C)C(/C=C/C=C/C=C2\Oc3ccccc3N2Cc2ccc(CC(=O)ON3C(=O)CCC3=O)cc2)=[N+](Cc2ccc(CC(=O)ON3C(=O)CCC3=O)cc2)c2ccc(S(=O)(=O)[O-])cc21` [Compound No. 14], in series [2], the “separation of live and dead cells” value was “can clearly distinguish live (low fluorescence) and dead cells (high fluorescence)”. In series [1] (in Methanol), the Em was found to be 642 nm, the Ex is 609 nm and the absorption max is recorded as 609 nm. Also, in series [1], the “Em / emission max” value amounted to 642 nm and the “Ex Peak / excitation max” value worked out at 609 nm.

Consider `CC1(C)C(/C=C/C=C/C=C2/N(Cc3ccc(CC(=O)O)cc3)c3ccccc3C2(C)C)=[N+](Cc2ccc(CC(=O)O)cc2)c2ccccc21.[Br-]` [Compound No. 16], for which, in series [1] (in Methanol), the Em was found to be 679 nm and the Ex stood at 650 nm. Moreover, in series [1], the “Em / emission max” value stood at 642 nm and the “Ex Peak / excitation max” value amounted to 609 nm.

In series [1] (in Methanol), `Cc1ccc(CN2/C(=C/C=C/C3=[N+](Cc4ccc(C)cc4)c4ccccc4C3(C)C)C(C)(C)c3ccccc32)cc1.[Br-]` [Compound No. 18] displayed an Em of 574 nm and an Ex of 551 nm. In series [1], the “Em / emission max” value amounted to 574 nm and the “Ex Peak / excitation max” value was found to be 551 nm. In addition, in series [3], the “utility for labeling and painting cells” value was “good utility for painting cells”.

Take `Cc1ccc(CN2/C(=C/C=C/C=C/C3=[N+](Cc4ccc(C)cc4)c4ccccc4C3(C)C)C(C)(C)c3ccccc32)cc1.[Br-]` [Compound No. 19]: in series [1] (in Methanol), the Em was found to be 674 nm and the Ex is given as 650 nm. Further, in series [1], the “Em / emission max” value is listed as 674 nm and the “Ex Peak / excitation max” value was 650 nm. In addition, the “utility for labeling and painting cells” value in series [3] is “good utility for labeling and painting cells”. In addition, in series [3] (3 h time period), the “retention of dye in painted cells” value is “good retention of dye”. For the same compound, the localization of dye result in series [3] (microscopy) is recorded as “localized intracellularly”.
